Measured values published in patent US5348949A, “Method of preparing N-oxo-tetrahydro-β-carbolines” (Duphar International Research B.V., priority 1989, dated 1994).
≈ marks a conversion by molar mass, not a printed value. Entries after “also recorded” stand apart in the source; their conditions may differ. Like-named read-outs stand apart in the source and are kept apart here.

What was measured:
[1] = cytotoxicity in MDCK cell cultures; conditions: dog
[2] = tested on: Sindbis virus; assay: inhibition of virus induced cytopathogenicity, Vero cells, Sindbis virus; format: cell-based
Method: (§1) Antiviral activity of some eudistomin derivatives was determined in a large number of in-vitro assays as described in reference 9. These tests are all based on the inhibition of virus induced cytopathogenicity. Depending upon the virus studied, different cell cultures were used. […] New compound 67 has the additional advantage of a 10-fold higher potency as compared with known compound 63.

[3] = tested on: Polio virus; assay: microbe, parasite or virus in culture; format: cell-based; conditions: read-out: MIC Polio virus
[4] = tested on: influenza virus A (Ishikawa); assay: microbe, parasite or virus in culture; format: cell-based; conditions: unidentified influenza virus, read-out: MIC influenza virus A (Ishikawa)
[5] = tested on: Coxsasckie virus B4; assay: inhibition of virus induced cytopathogenicity, Vero cells, Coxsackie virus B4; format: cell-based; conditions: Enterovirus B
Method: as §1

[6] = tested on: Coxsackie virus B4; assay: inhibition of virus induced cytopathogenicity, Hela cells, Coxsackie virus B4; format: cell-based; conditions: Enterovirus B
Method: as §1

[7] = cytotoxicity in primary rabbit kidney (PRK) cell cultures; conditions: primary rabbit kidney cells
[8] = tested on: Herpes simplex virus-2 (G); format: cell-based; conditions: Human alphaherpesvirus 2; PRK cells
Method: as §1

[9] = tested on: Herpes simplex virus-1 (F); format: cell-based; conditions: Human alphaherpesvirus 1; PRK cells
Method: as §1

[10] = tested on: Herpes simplex virus-2 (Lyons); format: cell-based; conditions: Human alphaherpesvirus 2; PRK cells
Method: as §1

[11] = tested on: Herpes simplex virus-1 (KOS); format: cell-based; conditions: Human alphaherpesvirus 1; PRK cells
Method: as §1

[12] = tested on: Herpes simplex virus-1 (McInyre); format: cell-based; conditions: Human alphaherpesvirus 1; PRK cells
Method: as §1

[13] = tested on: Herpes simplex virus-2 (196); format: cell-based; conditions: Human alphaherpesvirus 2; PRK cells
Method: as §1

[14] = cytotoxicity in Vero cell cultures; conditions: monkey, vero cells
[15] = tested on: P 388 leukemia cells; assay: inhibition of P 388 leukemia cells colony formation (in vitro antitumour); format: cell-based; conditions: for IC50: Mus musculus, P388, read-out: ID50
Method: The antitumour activity of some eudistomin derivatives and the references antitumour drug was assessed in an invitro test with high predictive power for in-vivo activity. In this assay the inhibition of P 388 leukemia cells colony formation was determined at several concentrations of the test compounds as described in reference 8. The activity is expressed as an ID50 value, which indicates the dose causing 50% inhibition with respect to untreated control cells.

[16] = tested on: Respiratory syncytial virus (Lung); assay: inhibition of virus induced cytopathogenicity, Hela cells, respiratory syncytial virus (Lung); format: cell-based; conditions: human respiratory syncytial virus
Method: as §1

[17] = tested on: Semliki forest virus; assay: inhibition of virus induced cytopathogenicity, Vero cells, Semliki forest virus; format: cell-based
Method: as §1

[18] = tested on: influenza virus B (Singapore); assay: microbe, parasite or virus in culture; format: cell-based; conditions: unidentified influenza virus, read-out: MIC influenza virus B (Singapore)
[19] = tested on: Vaccinia virus; assay: microbe, parasite or virus in culture; format: cell-based; conditions: Orthopoxvirus vaccinia, read-out: MIC Vaccinia virus
[20] = tested on: parainfluenza-3 virus; assay: inhibition of virus induced cytopathogenicity, Vero cells, parainfluenza-3 virus; format: cell-based
Method: as §1

[21] = tested on: Reovirus-1; assay: inhibition of virus induced cytopathogenicity, Vero cells, Reovirus-1; format: cell-based
Method: as §1

[22] = cytotoxicity in Hela cell cultures; conditions: human, hela cells
[23] = tested on: 22 antiviral test models; assay: 22 antiviral assays taken together (summary statements); format: cell-based
Method: as §1

[24] = in vitro; conditions: dog, mdck
[25] = tested on: Vesicular stomatitis virus; assay: microbe, parasite or virus in culture; format: cell-based; conditions: read-out: MIC Vesicular stomatitis virus
[26] = in vitro; conditions: rabbit, primary rabbit kidney cells
[27] = in vitro; conditions: monkey, vero cells
[28] = tested on: Vesicular stomatitis virus; assay: microbe, parasite or virus in culture; format: cell-based; conditions: read-out: MIC Vesicular stomatitis virus; remark: listed apart in the source
[29] = in vitro; conditions: human, hela cells

c1ccc2c3c([nH]c2c1)C1CCSCON1CC3 (racemic) [Compound 50, (±)-Deamino, debromo Eudistomin L]
MCC [1]: 80 µg/mL
MIC [2]: > 10 µg/mL
MIC [3]: > 10 µg/mL
MIC [4]: > 40 µg/mL
MIC [5]: > 25 µg/mL
MIC [6]: > 10 µg/mL
MCC [7]: ≥ 120 µg/mL
MIC [8]: > 120 µg/mL
MIC [9]: > 70 µg/mL
MIC [10]: > 70 µg/mL
MIC [11]: > 70 µg/mL
MIC [12]: > 70 µg/mL
MIC [13]: > 70 µg/mL
MCC [14]: ≥ 40 µg/mL
ID50 ([15]; dose causing 50% inhibition of colony formation vs untreated control cells): no activity at 1.0
MIC [16]: > 8 µg/mL
MIC [17]: > 25 µg/mL
MIC [18]: > 40 µg/mL
MIC [19]: > 70 µg/mL
MIC [20]: > 10 µg/mL
MIC [21]: > 10 µg/mL
MCC [22]: ≥ 30 µg/mL

N[C@@H]1CSCON2CCc3c([nH]c4ccccc34)[C@H]12 [Compound 63, (1S.13bS)-debromo Eudistomin L]
spectrum of antiviral activity [23]: exceptionally wide range of activities; also recorded: very broad spectrum of antiviral activity
MIC [2]: 0.35 µg/mL (≈ 1.27 µM)
MIC [3]: 0.7 µg/mL (≈ 2.54 µM)
MIC [4]: 0.8 µg/mL (≈ 2.91 µM)
MCC [24]: 8 µg/mL
MIC [25]: 0.2 µg/mL (≈ 0.726 µM)
MIC [5]: 0.55 µg/mL (≈ 2 µM)
MIC [6]: 0.55 µg/mL (≈ 2 µM)
MIC [8]: 0.2 µg/mL (≈ 0.726 µM)
MIC [9]: 0.25 µg/mL (≈ 0.908 µM)
MIC [10]: 0.38 µg/mL (≈ 1.38 µM)
MIC [11]: 1.35 µg/mL (≈ 4.9 µM)
MIC [12]: 0.2 µg/mL (≈ 0.726 µM)
MIC [13]: 0.2 µg/mL (≈ 0.726 µM)
IC50 [15]: 42 µg/mL (≈ 153 µM)
MIC [16]: 0.8 µg/mL (≈ 2.91 µM)
MIC [17]: 0.45 µg/mL (≈ 1.63 µM)
MIC [18]: 0.8 µg/mL (≈ 2.91 µM)
MCC [26]: ≥ 25 µg/mL
MIC [19]: 0.25 µg/mL (≈ 0.908 µM)
MCC [27]: ≥ 4 µg/mL
MIC [20]: > 0.6 µg/mL
MIC [28]: 0.2 µg/mL (≈ 0.726 µM)
MIC [21]: 0.4 µg/mL (≈ 1.45 µM)
MCC [29]: ≥ 4 µg/mL

COc1ccc2[nH]c3c(c2c1)CCN1OCSCC(N)C31 [Compound 67, (1S,13bS)-5-methoxy Eudistomin L]
spectrum of antiviral activity [23]: exceptionally wide range of activities; also recorded: very broad spectrum of antiviral activity
MIC [2]: 0.045 µg/mL (≈ 0.147 µM)
MIC [3]: 0.045 µg/mL (≈ 0.147 µM)
MIC [4]: > 0.32 µg/mL
MCC [24]: 0.8 µg/mL
MIC [5]: 0.07 µg/mL (≈ 0.229 µM)
MIC [6]: 0.045 µg/mL (≈ 0.147 µM)
MIC [8]: 0.012 µg/mL (≈ 0.0393 µM)
MIC [9]: 0.039 µg/mL (≈ 0.128 µM)
MIC [10]: 0.023 µg/mL (≈ 0.0753 µM)
MIC [11]: 0.045 µg/mL (≈ 0.147 µM)
MIC [12]: 0.013 µg/mL (≈ 0.0426 µM)
MIC [13]: 0.014 µg/mL (≈ 0.0458 µM)
IC50 [15]: 3.8 µg/mL (≈ 12.4 µM)
MIC [16]: 0.15 µg/mL (≈ 0.491 µM)
MIC [17]: 0.11 µg/mL (≈ 0.36 µM)
MIC [18]: > 0.32 µg/mL
MCC [26]: ≥ 2.5 µg/mL
MIC [19]: 0.012 µg/mL (≈ 0.0393 µM)
MCC [27]: ≥ 1 µg/mL
MIC [20]: 0.55 µg/mL (≈ 1.8 µM)
MIC [21]: 0.045 µg/mL (≈ 0.147 µM)
MCC [29]: 2 µg/mL

NC(=O)c1ncn([C@@H]2O[C@H](CO)[C@@H](O)[C@H]2O)n1 [Ribavirin, ribavirin, reference compound]
MIC [2]: > 235 µg/mL
MIC [3]: 110 µg/mL (≈ 450 µM)
MIC [4]: 15 µg/mL (≈ 61.4 µM)
MCC [24]: > 200 µg/mL
MIC [5]: > 300 µg/mL
MIC [6]: 70 µg/mL (≈ 287 µM)
MIC [8]: > 200 µg/mL
MIC [9]: > 200 µg/mL
MIC [10]: > 200 µg/mL
MIC [11]: > 200 µg/mL
MIC [12]: > 200 µg/mL
MIC [13]: > 200 µg/mL
MIC [16]: 3 µg/mL (≈ 12.3 µM)
MIC [17]: > 300 µg/mL
MIC [18]: 15 µg/mL (≈ 61.4 µM)
MCC [26]: ≥ 400 µg/mL
MIC [19]: 30 µg/mL (≈ 123 µM)
MCC [27]: > 400 µg/mL
MIC [20]: 135 µg/mL (≈ 553 µM)
MIC [21]: 125 µg/mL (≈ 512 µM)
MCC [29]: ≥ 400 µg/mL

COc1cccc2c1C(=O)c1c(O)c3c(c(O)c1C2=O)C[C@@](O)(C(=O)CO)C[C@@H]3O[C@H]1C[C@H](N)[C@H](O)[C@H](C)O1 [adriamycin, reference compound]
IC50 [15]: 20 µg/mL (≈ 36.8 µM)
